# Publication PMC3217850, “BACE-1 inhibition prevents the γ-secretase inhibitor evoked Aβ rise in human neuroblastoma SH-SY5Y cells” (Journal of Biomedical Science, 2011)
# What was measured:
# SH-SY5Y APPswe cells [1] = assay: Aβ40 secretion from SH-SY5Y APPswe cells, ELISA of culture medium; format: cell-based, human; settings: for IC50: Homo sapiens, 24 h
# Protocol: (§1) The human neuroblastoma cell line SH-SY5Y was purchased from European Collection of Cell Cultures (ECACC). Cells were grown in DMEM/Ham's F-12 (PAA), supplemented with 1% non-essential amino acids (PAA) and 10% Fetal Bovine Serum (PAA). Cells were maintained at 37°C in a humidified atmosphere containing 5% CO2.
# (§2) SH-SY5Y cells were stably transfected with plasmids carrying human APPwt or APPswe gene. APP gene was purchased from Geneservice Ltd (clone sequence BC065529; clone MGC75167) and the APPswe mutation was generated using a QuikChange® Site-Directed Mutagenesis Kit (Stratagene). APPwt and APPswe genes were cloned into a mammalian expression vector pcDNA3.1 and the expression was under the control of CMV promotor. The cells were plated at the density of 6.25 × 10^4 cells/cm^2 in 6-well culture dishes (Sarstedt) and each well was transfected with 4 μg plasmid DNA. Lipofectamine™2000 (InVitrogen) was used as a transfection reagent according to manufacturer's instructions. The transfected cells were selected with 400 μg/ml G418 (PAA).
# (§3) Cells were plated at a density of 6.25 × 10^4 cells/cm^2 in 96-well cell culture plates (TRP) for Aβ measurements with ELISA or in 6-well culture dishes (Sarstedt) for Western blot. The day after the plating of the cells, the cultures were treated with various concentrations of γ-secretase inhibitor LY450139 or the BACE inhibitor for 24 hours. Stock solutions of inhibitors were prepared in dimethyl-sulfoxide (DMSO). All cultures including the control cells received equal amounts of DMSO, the final concentration being 0.1%. All the results were from two to three separate experiments and the data presented as means ± SEM.
# (§4) The secreted Aβ40 and Aβ42 peptides in cell culture media were measured using human amyloid β40 or β42 ELISA kits from Millipore. The absorbance was measured at 450 nm by Microplate reader (Molecular Devices). Data from inhibitor-treated cell cultures was expressed as a percent of untreated controls and the inhibition curves were analysed by non-linear regression using Graph Pad Prism.
# SH-SY5Y APPwt cells [2] = assay: Aβ40 secretion from SH-SY5Y APPwt cells, ELISA of culture medium; format: cell-based, human; settings: for IC50: Homo sapiens, 24 h
# Protocol: as §1, §2, §3, §4
# Aβ [3] = system: Aβ; set-up: method as in PMID 19360898; settings: healthy volunteers ref 3; cited from earlier work
# SH-SY5Y APPwt cells [4] = assay: Western blot (6E10 antibody) of APP substrate in cell lysates; format: cell-based, human; settings: 3, 30 or 300 nM LY450139, 24 h
# Protocol: as §3
# SH-SY5Y cells were lysed in buffer containing 50 mM Tris-HCl pH 8.0, 150 mM NaCl, 1% Triton X-100, 1 mM EDTA, 1 mM Na3VO4 and 1 complete protease inhibitor cocktail tablet (Roche Diagnostics)/10 ml buffer. The cells were incubated with lysis buffer for 10 minutes on ice before scraping the cells from the dishes. Cell lysates were centrifuged at 14 000 rpm for 15 minutes. The protein content in the supernatants was measured using Pierce® 660 nm Protein Assay kit. Samples, containing 20 μg protein, were resolved in 7% NuPAGE®Tris-Acetate gels (InVitrogen) using Tris-Acetate SDS running buffer (InVitrogen). […] Average density of the bands was measured in ChemiDoc™XRS (Bio-Rad) by using Quantity One software.
# SH-SY5Y APPwt cells [5] = assay: Aβ42 secretion from SH-SY5Y APPwt cells, ELISA of culture medium; format: cell-based, human
# Protocol: as §1
# as §2, with “The transfected cells were selected with 400 μg/ml G418 (PAA).” left out
# as §4
# SH-SY5Y APPswe cells [6] = assay: Aβ42 secretion from SH-SY5Y APPswe cells, ELISA of culture medium; format: cell-based, human; settings: 3 nM LY450139, SH-SY5Y APPswe
# Protocol: as §1
# as §2, with “The transfected cells were selected with 400 μg/ml G418 (PAA).” left out
# as §4
# AD patients = system: AD patients; set-up: method as in earlier work; settings: phase III, AD patients ref 14; cited from earlier work
# Aβ [7] = system: Aβ; set-up: method as in PMID 20363853; settings: preclinically ref 13; cited from earlier work
structure (smiles),measurement,setting,value
"CCc1cn2c3c(cc(C(=O)N[C@@H](Cc4ccccc4)[C@H](O)CNC4CC4)cc13)N(C)S(=O)(=O)CC2 [BACE inhibitor, N-[(1S,2R)-1-Benzyl-3-(cyclopropylamino)-2-hydroxypropyl]-7-ethyl-1-methyl-3,4-dihydro-1H-[1,2, 5]thiadiazepino[3,4,5-hi-]indole-9-carboxamide 2,2-Dioxide]",IC50,"SH-SY5Y APPswe cells [1]; BACE inhibitor alone, SH-SY5Y APPswe",18 nM
same,IC50,"SH-SY5Y APPwt cells [2]; BACE inhibitor alone, SH-SY5Y APPwt",7 nM
same,concentration required to abolish the LY450139-evoked Aβ40 rise completely,SH-SY5Y APPwt cells [2]; SH-SY5Y APPwt,30 nM
"CC(C)[C@H](O)C(=O)N[C@@H](C)C(=O)N[C@@H]1C(=O)N(C)CCc2ccccc21 [LY450139, (N)-((S)-2-hydroxy-3-methyl-butyryl)-1-(L-alaninyl)-(S)-amino-3-methyl-2,3,4,5-tetrahydro-1H-3-benzazepin-2-one dihydrate]",effect on Aβ levels in the cerebrospinal fluid,Aβ [3],lower Aβ levels
same,effect on Aβ40 secretion per se,"SH-SY5Y APPswe cells [1]; 3 nM LY450139, SH-SY5Y APPswe",does not affect Aβ40-secretion per se
same,remaining Aβ40 secretion,"SH-SY5Y APPswe cells [1]; 30 nM LY450139, SH-SY5Y APPswe",20-30%
same,IC50,"SH-SY5Y APPswe cells [1]; SH-SY5Y APPswe, monophasic",18 nM
same,Aβ40 levels with 3 nM LY450139 in second 24 h,"SH-SY5Y APPswe cells [1]; after 300 nM LY450139 for first 24 h, SH-SY5Y APPswe",did not lead to increased Aβ40 levels
same,"substrate (APP bands, 6E10) level",SH-SY5Y APPwt cells [4],accumulation of substrate
same,Aβ40 levels increase above baseline,"SH-SY5Y APPwt cells [2]; 3 nM LY450139, 24 h, SH-SY5Y APPwt",60%
same,effect on basal Aβ40 levels,"SH-SY5Y APPwt cells [2]; 30 nM LY450139 per se, SH-SY5Y APPwt",does not affect basal Aβ40 levels
same,reduction of Aβ40 secretion compared to control,"SH-SY5Y APPwt cells [2]; 300 nM LY450139, 24 h, SH-SY5Y APPwt",80%
same,fold less potent at inhibiting Aβ40 secretion from APPwt cells compared to APPswe cells,SH-SY5Y APPwt cells [2]; APPwt vs APPswe IC50,~ 5 fold
same,IC50,"SH-SY5Y APPwt cells [2]; SH-SY5Y APPwt, inhibitory phase at > 30 nM, approximate",~90 nM
same,Aβ40 production 2 - 6 hours after washout,"SH-SY5Y APPwt cells [2]; LY450139 pre-treated vs control cells, data not shown",did not differ
same,Aβ40 levels increase with 3 nM LY450139 in second 24 h,"SH-SY5Y APPwt cells [2]; after 300 nM LY450139 for first 24 h, compared to cells given fresh medium in second 24 h, SH-SY5Y APPwt",60%
same,Aβ40 secretion during 24 h after washout,"SH-SY5Y APPwt cells [2]; pre-treated 300 nM LY450139 24 h, then fresh medium 24 h, SH-SY5Y APPwt",did not differ from control cells
same,secreted Aβ42 levels increase compared to controls,"SH-SY5Y APPwt cells [5]; 3 nM LY450139, SH-SY5Y APPwt",70%
same,Aβ42 secretion after washout,"SH-SY5Y APPwt cells [5]; 300 nM LY450139 24 h, then fresh medium 24 h, SH-SY5Y APPwt",returned to control levels
same,effect on secreted Aβ42 levels,SH-SY5Y APPswe cells [6],not affected
same,cognitive symptoms versus placebo,AD patients,fared worse than placebo-treated controls
CCC[C@H](N[C@H]1CCc2cc(F)cc(F)c2C1)C(=O)Nc1cn(C(C)(C)CNCC(C)(C)C)cn1 [PF-3084014],Aβ rebound/rise attribute,Aβ [7],lack this attribute
